Laboratory results reported in the NIST ThermoML archive (doi:10.1016/j.jct.2004.09.021).

What was measured:
[1] = 101 kPa, Liquid
[2] = refractive index (Na D-line) (dimensionless); settings: 101.33 kPa, Liquid
[3] = xn = mol fraction of the nth substance listed; settings: 101 kPa, Liquid
[4] = refractive index (Na D-line) (dimensionless); xn = mol fraction of the nth substance listed; settings: 101 kPa, Liquid

CCCCCCCCCC [decane]
Settings	mass density, 293.15 K [kg/m3]	mass density, 298.15 K [kg/m3]	mass density, 303.15 K [kg/m3]	refractive index, 293.15 K	refractive index, 298.15 K	refractive index, 303.15 K	viscosity, 293.15 K [mPa·s]	viscosity, 298.15 K [mPa·s]	viscosity, 303.15 K [mPa·s]
[1]	729.91	726.16	722.36	–	–	–	0.9169	0.8512	0.7898
[2]	–	–	–	1.4148	1.4118	1.4089	–	–	–

COc1ccccc1 [anisole] + CCCCCCCCC
Settings	mass density, 293.15 K [kg/m3]	mass density, 298.15 K [kg/m3]	mass density, 303.15 K [kg/m3]	refractive index, 293.15 K	refractive index, 298.15 K	refractive index, 303.15 K	viscosity, 293.15 K [mPa·s]	viscosity, 298.15 K [mPa·s]	viscosity, 303.15 K [mPa·s]
[3], x1 = 0.1003	737.55	730.48	726.35	–	–	–	0.7027	0.6663	0.6209
[3], x1 = 0.1991	752.72	748.56	744.37	–	–	–	0.6975	0.6588	0.6172
[3], x1 = 0.2995	776.9	768.71	764.41	–	–	–	0.7043	0.662	0.6139
[3], x1 = 0.3997	795.17	790.9	786.51	–	–	–	0.7127	0.6693	0.6315
[3], x1 = 0.4998	819.75	815.37	810.88	–	–	–	0.7381	0.6982	0.6485
[3], x1 = 0.5907	844.35	839.87	835.33	–	–	–	0.7718	0.7299	0.6758
[3], x1 = 0.6975	876.64	872.08	867.39	–	–	–	0.8298	0.7801	0.7158
[3], x1 = 0.8008	911.95	907.24	902.38	–	–	–	0.9049	0.8452	0.7771
[3], x1 = 0.898	949.42	944.51	939.7	–	–	–	0.9871	0.9159	0.8365
[3], x1 = 1	993.81	989.15	984.42	–	–	–	1.085	1.017	0.9285
[4], x1 = 0.116	–	–	–	1.4119	1.4103	1.4074	–	–	–
[4], x1 = 0.218	–	–	–	1.4191	1.4173	1.4148	–	–	–
[4], x1 = 0.32	–	–	–	1.4276	1.4257	1.4234	–	–	–
[4], x1 = 0.413	–	–	–	1.4361	1.4343	1.432	–	–	–
[4], x1 = 0.4989	–	–	–	1.4448	1.443	1.4409	–	–	–
[4], x1 = 0.5907	–	–	–	1.4553	1.4534	1.4515	–	–	–
[4], x1 = 0.673	–	–	–	1.466	1.4639	1.4619	–	–	–
[4], x1 = 0.782	–	–	–	1.4811	1.4789	1.4771	–	–	–
[4], x1 = 0.8965	–	–	–	1.4984	1.4961	1.4944	–	–	–
[4], x1 = 1	–	–	–	1.5161	1.5141	1.5129	–	–	–

COc1ccccc1 [anisole] + CCCCCC
Settings	mass density, 293.15 K [kg/m3]	mass density, 298.15 K [kg/m3]	mass density, 303.15 K [kg/m3]	refractive index, 293.15 K	refractive index, 298.15 K	refractive index, 303.15 K	viscosity, 293.15 K [mPa·s]	viscosity, 298.15 K [mPa·s]	viscosity, 303.15 K [mPa·s]
[3], x1 = 0.0993	688.1	683.56	678.98	–	–	–	0.3336	0.3159	0.305
[3], x1 = 0.1959	716.85	712.32	707.69	–	–	–	0.3594	0.3451	0.3257
[3], x1 = 0.3008	749.04	744.42	739.83	–	–	–	0.3971	0.3776	0.3565
[3], x1 = 0.3998	780.42	775.78	771.15	–	–	–	0.4376	0.4157	0.396
[3], x1 = 0.5045	814.71	810.08	805.39	–	–	–	0.4958	0.4701	0.4451
[3], x1 = 0.5936	844.84	840.19	835.52	–	–	–	0.5596	0.529	0.5002
[3], x1 = 0.6834	876.15	871.52	866.76	–	–	–	0.6392	0.6028	0.5681
[3], x1 = 0.7909	914.94	910.25	905.45	–	–	–	0.756	0.71	0.6685
[3], x1 = 0.8975	954.65	949.92	945.31	–	–	–	0.9044	0.8483	0.7899
[3], x1 = 1	993.81	989.15	984.42	–	–	–	1.085	1.017	0.9285
[4], x1 = 0.095	–	–	–	1.3873	1.3844	1.3819	–	–	–
[4], x1 = 0.193	–	–	–	1.399	1.3952	1.3931	–	–	–
[4], x1 = 0.288	–	–	–	1.4109	1.4081	1.4061	–	–	–
[4], x1 = 0.391	–	–	–	1.4243	1.4217	1.4197	–	–	–
[4], x1 = 0.5121	–	–	–	1.4408	1.4382	1.4365	–	–	–
[4], x1 = 0.5942	–	–	–	1.4525	1.45	1.4483	–	–	–
[4], x1 = 0.678	–	–	–	1.4651	1.4626	1.4609	–	–	–
[4], x1 = 0.779	–	–	–	1.4807	1.4783	1.4767	–	–	–
[4], x1 = 0.881	–	–	–	1.497	1.4946	1.4931	–	–	–
[4], x1 = 1	–	–	–	1.5161	1.5141	1.5129	–	–	–
